For assay [1], the system named is gel-filtered platelets. Kind of assay: In vitro inhibition of thrombin-induced gel-filtered platelet aggregation. Type of assay: cell-based. The settings on record: human gel-filtered platelets, agonist thrombin 50 μL of 1 unit/mL, read-out: Thrmb IC50 (Thrombin-induced aggregation of gel-filtered platelets). An outline of the steps:
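Gel-filtered (Sepharose 2B) human platelets from citrated PRP, 2×10^7 per sample, in Tyrode's buffer pH 7.4 with BSA and added calcium, preincubated with test compound. Aggregation induced by thrombin (50 μL of 1 unit/mL) and followed as light transmission over 3 min. Inhibition is taken relative to control-treated platelets.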

For assay [2], the target named is T1, thrombin receptor (PAR-1) (Homo sapiens, UniProt P25116).
T1 construct: CHRF membranes (Jones, Biochim. Biophys. Acta 1992, 1136, 272) are thawed from −70° C; endogenous in cells; host or cells: CHRF cell membranes
T1 sequence (P25116 22-425): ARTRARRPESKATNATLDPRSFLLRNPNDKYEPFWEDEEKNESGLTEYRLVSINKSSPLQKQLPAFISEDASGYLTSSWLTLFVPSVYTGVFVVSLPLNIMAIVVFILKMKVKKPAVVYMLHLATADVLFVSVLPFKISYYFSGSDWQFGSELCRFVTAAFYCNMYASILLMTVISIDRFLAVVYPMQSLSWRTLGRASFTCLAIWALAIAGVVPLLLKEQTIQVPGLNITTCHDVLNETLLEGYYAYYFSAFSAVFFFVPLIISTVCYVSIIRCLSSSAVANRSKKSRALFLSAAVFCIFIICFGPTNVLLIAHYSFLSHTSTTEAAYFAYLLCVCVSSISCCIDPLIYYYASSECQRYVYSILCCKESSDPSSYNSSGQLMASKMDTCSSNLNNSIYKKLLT
Kind of assay: In vitro thrombin receptor binding assay (CHRF membranes). The settings on record: tritiated 721-40 radioligand, read-out: Bndg IC50 (Thrombin receptor binding). In outline: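 CHRF cell membranes incubated 30 min with tritiated peptide agonist 721–40 and compound at 3.7 μg/mL final (0.6% DMSO) in HEPES/MgCl2/BSA buffer. Nonspecific binding defined with unlabeled 721–40; bound radioactivity counted after filtration onto PEI-treated filters.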

From patent US7183252B2, “Indole peptidomimetics as thrombin receptor antagonists” (Ortho-McNeil Pharmaceutical, Inc., priority 1999, dated 2007) come the findings set out here.

Structures are written as SMILES. Read-outs that look alike come from different tables or passages of the source.

Take `C[C@@H](CNC(=O)[C@H](CCCNC(=N)N)NC(=O)[C@H](Cc1ccc(F)c(F)c1)NC(=O)Nc1ccc2c(CN3CCCC3)cn(Cc3c(Cl)cccc3Cl)c2c1)c1ccccc1` [Compound 83]: the results for the 50% inhibitory concentration (IC50) in assay [1] (Platelet) and in assay [2] were 430 nM and 680 nM, respectively.

Consider `N=C(N)NCCC[C@H](NC(=O)[C@@H](Cc1ccc(F)c(F)c1)NC(=O)Nc1ccc2c(CN3CCCC3)cn(Cc3c(Cl)cccc3Cl)c2c1)C(=O)NCc1ccccc1` [Compound 84], for which the IC50 in assay [1] came out at 14900 nM; in assay [2] it was 3200 nM.

As for `NC(N)=NCCC[C@H](NC(=O)[C@H](Cc1ccc(I)cc1)NC(=O)Nc1ccc2c(CN3CCCCC3)cn(Cc3c(Cl)cccc3Cl)c2c1)C(=O)NCc1ccccc1` [Compound 85], the concentration for half-maximal inhibition (IC50) in assay [1] (Platelet) amounted to 4800 nM; in assay [2] it was 1600 nM.

For the molecule `N=C(N)NCCC[C@H](NC(=O)[C@H](Cc1ccccc1Cl)NC(=O)Nc1ccc2c(CN3CCCCC3)cn(Cc3c(Cl)cccc3Cl)c2c1)C(=O)NCc1ccccc1` [Compound 86], the IC50 in assay [1] (Platelet) was found to be 2900 nM; in assay [2], 510 nM.

Consider `COC[C@H]1CCCN1Cc1cn(Cc2c(Cl)cccc2Cl)c2cc(NC(=O)N[C@@H](Cc3ccc(Cl)cc3)C(=O)N[C@@H](CCCNC(=N)N)C(=O)NCc3ccccc3)ccc12` [Compound 87], for which the IC50 in assay [1] (Platelet) stood at 1300 nM; in assay [2] it was 280 nM.

For `NC(N)=NCCC[C@H](NC(=O)[C@H](Cc1cccc(F)c1)NC(=O)Nc1ccc2c(CN3CCC(=O)CC3)cn(Cc3c(Cl)cccc3Cl)c2c1)C(=O)NCc1ccccc1` [Compound 88], the IC50 in assay [1] (Platelet) worked out at 12600 nM; in assay [2], 1700 nM.

`Cc1ccccc1Cn1cc(CN2CCC(N(C)C)C2)c2ccc(NC(=O)N[C@H](Cc3ccc(F)c(F)c3)C(=O)N[C@@H](CCCN=C(N)N)C(=O)NCc3ccccc3)cc21` (stereo partly drawn) [Compound 90]: the IC50 is more than 10000 nM in assay [1] (Platelet) and 15800 nM in assay [2].

With `COC[C@H]1CCCN1Cc1cn(Cc2cc(Cl)nc(Cl)c2)c2cc(NC(=O)N[C@@H](Cc3cccc(F)c3)C(=O)N[C@@H](CCCNC(=N)N)C(=O)NCc3ccccc3)ccc12` [Compound 91], the results for the half-inhibitory concentration (IC50) in assay [1] (Platelet) and in assay [2] were 22400 nM and 4000 nM, respectively.

As for `N=C(N)NCCC[C@H](NC(=O)[C@H](Cc1cccc(F)c1)NC(=O)Nc1ccc2c(CN3CCCC3)cn(Cc3c(Cl)cccc3Cl)c2c1)C(=O)NCc1ccc(S(N)(=O)=O)cc1` [Compound 92], the IC50 stood at 1300 nM in assay [1] (Platelet) and 1000 nM in assay [2].

On to `C=CCOC(=O)[C@H](CCCN)NC(=O)[C@H](Cc1ccc(F)c(F)c1)NC(=O)Nc1ccc2c(CN3CCCC3)cn(Cc3c(Cl)cccc3Cl)c2c1` [Compound 93], for which the IC50 amounted to 740 nM in assay [1] (Platelet) and 500 nM in assay [2].

`CC(=O)NCCC[C@H](NC(=O)[C@H](Cc1ccc(F)c(F)c1)NC(=O)Nc1ccc2c(CN3CCCC3)cn(Cc3c(Cl)cccc3Cl)c2c1)C(=O)NCc1ccccc1` [Compound 94]: the IC50 worked out at 10000 nM in assay [1] (Platelet) and 810 nM in assay [2].

Regarding `CC(=N)NCCC[C@H](NC(=O)[C@H](Cc1ccc(F)c(F)c1)NC(=O)Nc1ccc2c(CN3CCCC3)cn(Cc3c(Cl)cccc3Cl)c2c1)C(=O)NCc1ccccc1` [Compound 95], the IC50 in assay [1] (Platelet) amounted to 410 nM; in assay [2] it was 370 nM.

Consider `NCCC[C@H](NC(=O)[C@H](Cc1cccc(F)c1)NC(=O)Nc1ccc2c(CN3CCCC3)cn(Cc3c(Cl)cccc3Cl)c2c1)C(=O)NC1Cc2ccccc2C1` [Compound 96], for which the IC50 was 1000 nM in assay [1] (Platelet) and 2800 nM in assay [2].

With `C=CCN(C)Cc1cn(Cc2c(Cl)cccc2Cl)c2cc(NC(=O)N[C@@H](Cc3cccc(F)c3)C(=O)N[C@@H](CCCN)C(=O)NC3Cc4ccccc4C3)ccc12` [Compound 97], the values for the half-maximal inhibitory concentration (IC50) in assay [1] (Platelet) and in assay [2] were 18800 nM and 1700 nM, respectively.

Regarding `NCCC[C@H](NC(=O)[C@H](Cc1ccc(F)c(F)c1)NC(=O)Nc1ccc2c(CN3CCCC3)cn(Cc3c(Cl)cccc3Cl)c2c1)C(=O)NCc1ccncc1` [Compound 98], the figures for the half-maximal inhibitory concentration (IC50) in assay [1] (Platelet) and in assay [2] were 1800 nM and 2300 nM, respectively.

On to `NCCC[C@H](NC(=O)[C@H](Cc1ccc(Cl)cc1)NC(=O)Nc1ccc2c(CN3CCCC3)cn(Cc3c(Cl)cccc3Cl)c2c1)C(=O)NCc1ccccc1Cl` [Compound 99], for which the IC50 in assay [1] (Platelet) is 740 nM; in assay [2] it was 1400 nM.

In the case of `CN(C)CCC[C@H](NC(=O)[C@H](Cc1ccc(F)c(F)c1)NC(=O)Nc1ccc2c(CN3CCCC3)cn(Cc3c(Cl)cccc3Cl)c2c1)C(=O)NCc1ccccc1` [Compound 100], the results for the IC50 in assay [1] (Platelet) and in assay [2] were 600 nM and 1300 nM, respectively.

On to `NC[C@H](NC(=O)[C@H](Cc1ccc(F)c(F)c1)NC(=O)Nc1ccc2c(CN3CCCC3)cn(Cc3c(Cl)cccc3Cl)c2c1)C(=O)NCc1ccccc1` [Compound 101], for which the half-maximal inhibitory concentration (IC50) was 410 nM in assay [1] (Platelet) and 920 nM in assay [2].

As for `NCC[C@H](NC(=O)[C@H](Cc1ccc(F)c(F)c1)NC(=O)Nc1ccc2c(CN3CCCC3)cn(Cc3c(Cl)cccc3Cl)c2c1)C(=O)NCc1ccccc1` [Compound 102, Benzenepropanamide, N-[(1S)-3-amino-1-[[(phenylmethyl)amino]carbonyl]propyl]-α-[[[[1-[(2,6-dichlorophenyl)methyl]-3-(1-pyrrolidinylmethyl)-1H-indol-6-yl]amino]carbonyl]amino]-3,4-difluoro-, (αS)-], the half-maximal inhibitory concentration (IC50) came out at 160 nM in assay [1] (Platelet) and 500 nM in assay [2].

As to `NC(=O)CC[C@H](NC(=O)[C@H](Cc1ccc(F)c(F)c1)NC(=O)Nc1ccc2c(CN3CCCC3)cn(Cc3c(Cl)cccc3Cl)c2c1)C(=O)NCc1ccccc1` [Compound 103], the IC50 in assay [1] (Platelet) is 540 nM; in assay [2], 1200 nM.

Take `CSCC[C@H](NC(=O)[C@H](Cc1ccc(F)c(F)c1)NC(=O)Nc1ccc2c(CN3CCCC3)cn(Cc3c(Cl)cccc3Cl)c2c1)C(=O)NCc1ccccc1` [Compound 104]: the IC50 in assay [1] (Platelet) was 530 nM; in assay [2] it was 11200 nM.

For `O=C(Nc1ccc2c(CN3CCCC3)cn(Cc3c(Cl)cccc3Cl)c2c1)N[C@@H](Cc1ccc(F)c(F)c1)C(=O)N[C@@H](Cc1ccncc1)C(=O)NCc1ccccc1` [Compound 105], the half-maximal inhibitory concentration (IC50) in assay [1] (Platelet) was 640 nM; in assay [2] it was 7500 nM.

In the case of `Nc1ccc(C[C@H](NC(=O)[C@H](Cc2ccc(F)c(F)c2)NC(=O)Nc2ccc3c(CN4CCCC4)cn(Cc4c(Cl)cccc4Cl)c3c2)C(=O)NCc2ccccc2)cc1` [Compound 106], the figures for the IC50 in assay [1] (Platelet) and in assay [2] were 1100 nM and 3300 nM, respectively.

Regarding `N=C(N)NCCC[C@H](NC(=O)[C@@H]1CCCN1C(=O)Nc1ccc2c(CN3CCCC3)cn(Cc3c(Cl)cccc3Cl)c2c1)C(=O)NCc1ccccc1` [Compound 107], the IC50 came to 1800 nM in assay [1] (Platelet) and 8000 nM in assay [2].

As for `N=C(N)NCCC[C@H](NC(=O)CCNC(=O)[C@H](Cc1ccc(F)c(F)c1)NC(=O)Nc1ccc2c(CN3CCCC3)cn(Cc3c(Cl)cccc3Cl)c2c1)C(=O)NCc1ccccc1` [Compound 108], the values for the IC50 in assay [1] (Platelet) and in assay [2] were 3700 nM and 2600 nM, respectively.

As for `NCCC[C@H](NC(=O)[C@H](Cc1ccc(F)c(F)c1)NC(=O)Nc1ccc2c(CN3CCCC3)cn(Cc3c(Cl)cccc3Cl)c2c1)C(=O)NCCc1ccncc1` [Compound 109], the IC50 in assay [1] (Platelet) was found to be 840 nM; in assay [2] it was 610 nM.

As for `CCN(Cc1ccncc1)C(=O)[C@H](CCCN)NC(=O)[C@H](Cc1ccc(F)c(F)c1)NC(=O)Nc1ccc2c(CN3CCCC3)cn(Cc3c(Cl)cccc3Cl)c2c1` [Compound 110], the half-maximal inhibitory concentration (IC50) in assay [1] (Platelet) was 3700 nM; in assay [2], 2900 nM.

On to `CN(Cc1ccccc1)C(=O)[C@H](CCCN)NC(=O)[C@H](Cc1ccc(F)c(F)c1)NC(=O)Nc1ccc2c(CN3CCCC3)cn(Cc3c(Cl)cccc3Cl)c2c1` [Compound 111], for which the concentration for half-maximal inhibition (IC50) came out at 3200 nM in assay [1] (Platelet) and 1900 nM in assay [2].

With `NCCC[C@H](NC(=O)[C@H](Cc1ccc(F)c(F)c1)NC(=O)Nc1ccc2c(CN3CCCC3)cn(Cc3c(Cl)cccc3Cl)c2c1)C(=O)NCc1ccc(Cl)c(Cl)c1` [Compound 112], the IC50 in assay [1] (Platelet) turned out to be 930 nM; in assay [2] it was 2000 nM.

Regarding `NCCC[C@H](NC(=O)[C@H](Cc1ccc(F)c(F)c1)NC(=O)Nc1ccc2c(CN3CCCC3)cn(Cc3c(Cl)cccc3Cl)c2c1)C(=O)NCc1cccs1` [Compound 113], the half-maximal inhibitory concentration (IC50) worked out at 720 nM in assay [1] (Platelet) and 850 nM in assay [2].

Turning to `CN1CCN(C(=O)[C@H](CCCN)NC(=O)[C@H](Cc2ccc(F)c(F)c2)NC(=O)Nc2ccc3c(CN4CCCC4)cn(Cc4c(Cl)cccc4Cl)c3c2)CC1` [Compound 114], the half-inhibitory concentration (IC50) in assay [1] (Platelet) is 2400 nM; in assay [2] it was 260 nM.

As for `NCCC[C@H](NC(=O)[C@H](Cc1ccc(F)c(F)c1)NC(=O)Nc1ccc2c(CN3CCCC3)cn(Cc3c(Cl)cccc3Cl)c2c1)C(=O)N1CCCCC1` [Compound 115], the half-maximal inhibitory concentration (IC50) in assay [1] (Platelet) worked out at 2700 nM; in assay [2], 370 nM.

With `NCCC[C@H](NC(=O)[C@H](Cc1ccc(F)c(F)c1)NC(=O)Nc1ccc2c(CN3CCCC3)cn(Cc3c(Cl)cccc3Cl)c2c1)C(=O)NCc1cccnc1` [Compound 116], the IC50 in assay [1] (Platelet) worked out at 1100 nM; in assay [2], 410 nM.
